The source of these data is patent US6699505B2, “Method of increasing the efficacy of antibiotics by compexing with cyclodextrins” (Massachusetts Institute of Technology, priority 2000, dated 2004).

In test [1] the test system is P. gingivalis. Put plainly: Zone of inhibition of PLGA chips in wells of seeded agar plates. The following applies: PLGA chips 4 mm×5 mm×0.5 mm in wells, anaerobic 37° C., measured daily. In kind it is cell-based. The source says:
(§1) FIG. 1 is a graph charting the change in size of the zone of growth inhibition of the bacterium P. gingivalis over time. The antibiotic being tested (complexed or non-complexed) is applied to a specific point near or within an area of bacterial growth on an agar plate. The bioactive agent diffuses from the application point and causes lysis of already growing bacteria, or inhibition of growth of bacteria within the zone of diffusion. The diameter of bacterial lysis or growth inhibition is a measure of the potency of the bioactive agent. […] A relatively small zone of lysis or growth inhibition indicates a less biologically active agent.
(§2) Increased biological activity of the antibiotic chlorhexidine was tested by placing chips composed of chorhexidine (C) and clorhexidine digluconate (Cg) complexed with hydroxypropyl-β-cyclodextrin (H) or methylated β-cyclodextrin adjacent to a tooth in agar seeded with P. gingivalis or B. forsythus. The agar plates were incubated to allow growth of the bacterium for 12-15 days and the zone of inhibition of bacterial growth around each chip was measured. An increase in biological activity was measured by an increase in the size of the zone of inhibition around the chip containing the complexed antibiotic compared to the size of the zone around the chip containing the uncomplexed antibiotic.
(§3) More particularly, the method used the following steps:
(§4) Mix: 5 g Trypticase Soy Agar
(§5) 6.5 g Brain Heart Infusion
(§6) Autoclave mixture for 15 minutes at 121 degree Celsius.
(§7) Cool to 50 degrees Celsius for 1 hour.
(§8) Add: 12.5 mL defibrinated sheep blood.
(§9) 300 uL N-acetylmuramic acid (100x).
(§10) Prepared B. forsythus and P. gingivalis culture solution with an optical density of 1˜10^9 cells/mL.
(§11) Added 2 mL of bacteria culture into their respective agar solutions.
(§12) Pour 20 mL agar solution into 150 mm diameter petri dishes.
(§13) Place well former into petri dishes.
(§14) Allow agar to harden by cooling to room temperature for 1 hour.
(§15) Place petri dishes in anaerobic chamber at 37° C. in an atmosphere consisting of 80% nitrogen, 10% hydrogen, and 10% carbon dioxide for 2 days.
(§16) Place 4 mm×5 mm×0.5 mm PLGA chips composed of: Cg, C, C/H, Cg/M, M, and H into preformed wells.
(§17) Masses of each component based on 25 wt % of Cg with respect to a 10 mg chip.
(§18) Add MilliQ water into wells to keep chips hydrated.
(§19) Keep petri dishes in anaerobic chamber during entire experiment.
(§20) Measure zones of inhibition daily using electronic calipers from the center of the well.
(§21) Experiments done in triplicate.

Test [2] has as its system B. forsythus. The test is described as above. The following applies: for zone of inhibition of bacterial growth: PLGA chips 4 mm×5 mm×0.5 mm in wells, B. forsythus agar, anaerobic 37° C., measured daily. In kind it is cell-based.
Excerpt: as §1, §2, §3, §4, §5, §6, §7, §8, §9, §10, §11, §12, §13, §14, §15, §16, §17, §18, §19, §20, §21

Turning to `[H]/N=C(\N/C(=N/[H])NCCCCCCNC(=N)NC(=N)Nc1ccc(Cl)cc1)Nc1ccc(Cl)cc1` [C, Chlorhexidine], the “zone of inhibition of bacterial growth” value in test [1] and in test [2] was “statistically similar” throughout. The zone of inhibition entry in test [2] (B. forsythus, FIG. 1 right panel) was “about 40 mm”.

For the molecule `N=C(NCCCCCCNC(=N)NC(=N)Nc1ccc(Cl)cc1)NC(=N)Nc1ccc(Cl)cc1.O=C(O)[C@H](O)[C@@H](O)[C@H](O)[C@H](O)CO.O=C(O)[C@H](O)[C@@H](O)[C@H](O)[C@H](O)CO` [Cg, Chlorhexidine Digluconate], the “zone of inhibition of bacterial growth” value in test [1] and in test [2] was “statistically similar” in each case.
